Assay results taken from patent US5871779A, “Treatment of arthropathies with vanadate compounds or analogues thereof” (Mount Sinai Hospital Corporation, priority 1996, dated 1999).

Assays:
fos = fos / c-fos mRNA expression in chondrocytes (Northern blot); type: cell-based, bovine; conditions: stimulus alone; H2 O2 30, 60 and 90 minutes; IL-1, PMA or AA (3 μM) 1 hour
Protocol: The cytokine interleukin 1 (IL 1) has been used to identify the intermediate second messengers which regulate the expression of fos and jun.
In order to elucidate this possibility, the effect of DPI on fos and jun mRNA levels induced by IL 1 was investigated. RNA from chondrocytes treated with IL 1 in the presence and absence of DPI were analyzed by Northern blot analysis using either fos or collagenase cDNA probes.
Since superoxides are rapidly converted to hydrogen peroxide in the cell by superoxide dismutase, whether hydrogen peroxide could mimic the effect of IL 1 in the induction of fos expression was investigated. RNA was extracted from chondrocytes (Kandel et al. supra) treated with H2 O2 for 30, 60 and 90 minutes and examined by Northern blot analysis using a fos cDNA probe.
Bovine articular chondrocytes were isolated and plated as previously described (Kandel R. A. et al. Biochim. Biophys. Acta. 1053, 130-134, 1990). […] The amount of ^3 H-AA liberated into the supernatant was determined. To measure PGE2 production, chondrocytes were incubated for 6 hours in Ham's F12 medium, either alone or with IL 1 or PMA. […] In order to examine the expression of c-fos and c-jun, chondrocytes were incubated for 1 hour in the presence of IL-1, PMA or AA (3 μM). Chondrocytes were washed in PBS and the total RNA extracted as previously described (Cruz. et al, 1991, Biochem. J. 277, 327-330). RNA samples were run on formaldehyde agarose gels and transferred to nylon membrane for northern analysis using cDNA probes for c-fos and c-jun.
The RNA was extracted and examined by Northern blot analysis using cDNA probes for c-fos and collagenase.

cells = test: cell toxicity of orthovanadate and H2 O2; type: cell-based; conditions: 1 mM H2 O2, 24 hours
Protocol: Orthovanadate was thought in view of the investigations described in Examples 1-3, to react with H2 O2 to form hydroxyl radicals which are extremely toxic. If the orthovanadate induced formation of hydroxyl radicals is responsible for cell toxicity, then adding exogenous H2 O2 should enhance the effects of orthovanadate. Accordingly, cells were incubated in media alone or containing 1 mM H2 O2 or 10 μM orthovanadate or both for 24 hours. The cells were harvested and cell viability determined.

MDAY-D2 cells = test: viability of MDAY-D2 cells; type: cell-based, mouse; conditions: 0-50 μM, 48 hours, three forms compared
Protocol: Fos and jun activity are also required for cellular proliferation in many tumor cell lines. Accordingly, the effect of orthovanadate on adherent cells and cell suspensions were examined. MDAY-D2 (a mouse lymphoid cell line grown in suspension) and HTB14 cells (an adherent human primary astrocytoma cell line) were incubated in media containing 0-50 μM orthovanadate for 48 hours. The cells were harvested and the number of viable cells determined.
Three different forms of vanadyl compounds were examined for their effect on viability of cancer cell lines. MDAY-D2 cells were incubated in media containing 0-50 μM orthovanadate, vanadyl sulphate, or vanadyl hydroperoxide for 48 hours. The cells were harvested and the number of viable cells determined. […] Although there were slight differences in sensitivity, the overall cell death was similar.

Lewis lung = test: MTT cytotoxicity assay, Lewis lung; type: cell-based, murine; conditions: 72 hours
Protocol: (§1) The relative cytotoxicity of various compounds on tumor cell lines was investigated as follows. Cytotoxicity was measured by the MTT microculture tetrazolium colorimetric assay for all cell lines. The relative cytotoxicity of Na3 VO4 and VOSO4 was investigated using the following tumor cell lines: P388(WT) murine leukemia, P388 (ADR) murine leukemia, Lewis murine lung, MCF7 (WT) human breast, […] human lung, K562 human erythroleukemia, A431 human epidermal, LS180 human colon and SK-OV-3 human ovarian. The relative cytotoxicity of doxorubicin, Na3 VO4 and VOSO4 was investigated using the following tumor cell lines: P388(WT) murine leukemia, P388 (ADR) murine leukemia, MCF7(WT) human breast and MCF7 (ADR) human breast. The relative cytotoxicity of BMOV, BEOV and naglivan was investigated using the following tumor cell lines: P388(WT) murine leukemia, P388 (ADR) murine leukemia, Lewis murine lung, H460 human lung, K562 human erythroleukemia, and SK-OV-3 human ovarian.
(§2) The cells were plated (number of cells/well was different from cell line to cell depending on the dividing rate) in a 96-well microculture plate 24 hours prior to the delivery of the vanadium compounds. Serial concentrations of solutions of the test compounds (0.05-100 μM) were delivered to the corresponding wells. A blank column (without cells) and a control column (with cells without vanadium) were left. The cells were incubated for 72 hours continuously. An MTT solution was added to each well after this incubation period and the cells were incubated for 4 more hours for the completion of the dyeing process. The medium was removed find DMSO was added to each well. The absorbance of each well was read with a Titertek Multiskan (310C) spectrophotometer at 570 nm. The percentage of the absorbance of each vanadium concentration relative to the control calculated and the value of the 50% growth inhibition concentration (IC50) was obtained from the % control versus concentration plot. Each assay was repeated three times and the reported IC50 values were the mean of these three runs.

P388 (ADR) = test: MTT cytotoxicity assay, P388 (ADR); type: cell-based, murine; conditions: P388 (ADR), 72 hours; read-out: IC50 Value
Protocol: as §1, §2

MCF7 (WT) = test: MTT cytotoxicity assay, MCF7 (WT); type: cell-based, human; conditions: MCF7 (WT), 72 hours; read-out: IC50 Value
Protocol: as §1, §2

MCF7 (ADR) = test: MTT cytotoxicity assay, MCF7 (ADR); type: cell-based, human; conditions: MCF7 (ADR), 72 hours; read-out: IC50 Value
Protocol: as §1, §2

synoviocytes = test: synoviocyte proliferation, dye exclusion (Example 24); type: cell-based
Protocol: The effect of vanadium compounds on synoviocyte proliferation was investigated as follows. Synoviocytes were plated on six well plates and treated with orthovanadate or vanadyl sulphate and incubated for 24 hours. The cells were removed and the number of viable cells determined by the dye exclusion method.

K562 = test: MTT cytotoxicity assay, K562; type: cell-based, human; conditions: K562, 72 hours
Protocol: as §1
as §2, with “Serial concentrations of solutions of the test compounds (0.05-100 μM) were delivered to the corresponding wells.” left out

SK-OV-3 = test: MTT cytotoxicity assay, SK-OV-3; type: cell-based, human; conditions: SK-OV-3, 72 hours
Protocol: as §1, §2

LS180 = test: MTT cytotoxicity assay, LS180; type: cell-based, human; conditions: LS180, 72 hours
Protocol: as §1
(§3) The cells were plated (number of cells/well was different from cell line to cell depending on the dividing rate) in a 96-well microculture plate 24 hours prior to the delivery of the vanadium compounds. Serial concentrations of solutions of the test compounds (0.05-100 μM) were delivered to the corresponding wells. […] The absorbance of each well was read with a Titertek Multiskan (310C) spectrophotometer at 570 nm. […]

A431 = test: MTT cytotoxicity assay, A431; type: cell-based, human; conditions: A431, 72 hours
Protocol: as §1, §3

P388 (WT) = test: MTT cytotoxicity assay, P388 (WT); type: cell-based, murine; conditions: P388 (WT), 72 hours; read-out: IC50 Value
Protocol: as §1, §2

H460 = test: MTT cytotoxicity assay, H460; type: cell-based, human; conditions: H460, 72 hours
Protocol: as §1, §2

carcinogenesis = conditions: dietary; cited from earlier work
[1] = system: metastases of MDAY-D2 cells; test: liver metastases of MDAY-D2 cells (histology); type: in vivo, mice; conditions: 500 μg/day; preliminary results
Description: (§4) In order to examine the ability of vanadyl compounds to reduce tumor formation, growth and metastases, a specific animal model which allows investigation of all of these processes in the same animal was chosen. This model involves the injection of a metastatic haematopoietic cell line, MDAY-D2, into mice subcutaneously. These cells form a tumor at the site of injection and its size can be easily determined. In addition, these cells metastasize to the liver and metastases can be detected histologically after day 17 to 19. This model provides a very sensitive and reproducible approach to investigate the effect of vanadyl compounds on tumor growth and metastases.
The metastatic liver was obtained from an animal 24 days following the administration MDAY-D2 cells. The nodules are quite numerous and large.
Livers were removed from animals treated as described above and prepared for histological examination. FIG. 16 compares liver sections from untreated (C), orthovanadate (VO)(500 μg/day) and vanadyl sulphate (VS)(500 μg/day) treated animals. Nodules are identified with an arrow.

MDAY-D2 tumor = MDAY-D2 tumor growth in vivo, orthovanadate, vanadyl sulphate, vanadyl hydroperoxide (Example 6B); design: species or system mice
Description: as §4
In a separate experiment using the same animal model, the effect of orthovanadate, vanadyl sulphate and vanadyl hydroperoxide administration on tumor growth in vivo was examined. On Day 1, 20 mice were injected with 2×10^5 MDAY-D2 cell subcutaneously. The mice were divided into four groups of five mice. At day 5, the animals were injected subcutaneously with 50 μl of water alone or containing 10 mg/ml of orthovanadate, 10 mg/ml of vanadyl sulphate, or 10 mg/ml of vanadyl hydroperoxide. This treatment was continued daily for 16 days. At day 21, the mice were sacrificed and the tumors dissected and weighed.

SMILES	stimulation of fos / c-fos expression (fos)	effect on cell toxicity, H2 O2 alone (cells)	killing of MDAY-D2 cells (MDAY-D2 cells)	IC50 (Lewis lung)	IC50 (P388 (ADR))	IC50 (MCF7 (WT))	IC50 (MCF7 (ADR))	cytotoxicity to synoviocytes (synoviocytes)	Number of cells (synoviocytes; 25 μM, 24 hours (control 2.6))	synoviocyte proliferation (synoviocytes; 24 hours)	IC50 (K562)	IC50 (SK-OV-3)	IC50 (LS180)	IC50 (A431)	IC50 (P388 (WT))	IC50 (H460)	chemically induced mammary carcinogenesis in rats (carcinogenesis)	metastases in liver [1]	animal deaths (MDAY-D2 tumor; groups of five, 10 mg/ml, 50 μl daily s.c.)	efficacy in reducing tumor growth (MDAY-D2 tumor; mouse, in vivo)
OO [H2 O2, hydrogen peroxide]	stimulates	small effect																		
O=S(=O)([O-])[O-].[O]=[V+2] [vanadyl sulphate]			equally effective	27.3 µM	29.8 µM	10.5 µM	31.3 µM	cytotoxic to the cells	0.2 10^-5	inhibited synoviocyte proliferation	> 100 µM	1.9 µM	31.9 µM	29.1 µM	16.1 µM	9.3 µM	inhibit	did not have detectable levels of metastases	One animal died	less effective
